Numbering of substitutions follows the chain as printed. “Also recorded” adds a separate entry of the source.
Columns and labels:
WT-ABCG2 = target: T1, WT-ABCG2 (Homo sapiens, UniProt Q9UNQ0); experiment: Membrane thermal shift, MEF membrane vesicles, WT-ABCG2; format: binding; conditions: 10 μM of ligand, 60 min at 37°C, heated 3 min at 65°C
T1 sequence (Q9UNQ0 1-655): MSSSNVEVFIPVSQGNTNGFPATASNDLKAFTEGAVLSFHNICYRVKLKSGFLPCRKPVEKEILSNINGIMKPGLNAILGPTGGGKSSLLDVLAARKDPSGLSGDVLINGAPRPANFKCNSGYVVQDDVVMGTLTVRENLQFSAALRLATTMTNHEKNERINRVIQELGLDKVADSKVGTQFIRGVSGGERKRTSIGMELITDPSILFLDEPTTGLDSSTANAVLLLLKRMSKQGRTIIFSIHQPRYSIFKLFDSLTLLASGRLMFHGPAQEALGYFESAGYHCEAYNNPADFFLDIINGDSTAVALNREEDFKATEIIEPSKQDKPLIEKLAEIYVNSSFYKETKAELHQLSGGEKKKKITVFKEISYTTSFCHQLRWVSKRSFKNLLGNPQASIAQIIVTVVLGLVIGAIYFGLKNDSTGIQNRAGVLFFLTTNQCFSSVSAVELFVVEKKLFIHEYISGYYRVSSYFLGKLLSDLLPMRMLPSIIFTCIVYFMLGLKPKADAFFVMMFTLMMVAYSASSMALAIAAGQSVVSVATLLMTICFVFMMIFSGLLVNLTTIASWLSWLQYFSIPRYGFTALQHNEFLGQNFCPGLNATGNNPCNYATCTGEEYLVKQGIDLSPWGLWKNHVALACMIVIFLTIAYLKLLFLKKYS

F439W-ABCG2 [1] = target: T2, F439W-ABCG2 (Homo sapiens, UniProt Q9UNQ0, F439W); experiment: Membrane thermal shift, MEF membrane vesicles, F439W; format: binding; conditions: 10 μM of Hoechst 33342, 60 min at 37°C
T2 sequence (Q9UNQ0 1-655 F439W): T1 sequence (Q9UNQ0 1-655) with F439W

F439Y-ABCG2 [2] = target: T3, F439Y-ABCG2 (Homo sapiens, UniProt Q9UNQ0, F439Y); experiment: Membrane thermal shift, MEF membrane vesicles, F439Y; format: binding; conditions: 10 μM of Hoechst 33342, 60 min at 37°C
T3 sequence (Q9UNQ0 1-655 F439Y): T1 sequence (Q9UNQ0 1-655) with F439Y

F439A-ABCG2 = target: T4, F439A-ABCG2 (Homo sapiens, UniProt Q9UNQ0, F439A); experiment: Transport assay; format: cell-based; conditions: 0.5 μM substrate
T4 sequence (Q9UNQ0 1-655 F439A): T1 sequence (Q9UNQ0 1-655) with F439A

F439W-ABCG2 [3] = target: T2, F439W-ABCG2; experiment: Transport assay; format: cell-based; conditions: 0.5 μM of Hoechst 33342, ± 10 μM of Lapatinib, 120 min
F439Y-ABCG2 [4] = target: T3, F439Y-ABCG2; experiment: Transport assay; format: cell-based; conditions: 0.5 μM of Hoechst 33342, ± 10 μM of Lapatinib, 120 min
F439A = conditions: ref 11 (Manolaridis et al); cited from earlier work
N436A = conditions: ref 11 (Manolaridis et al); cited from earlier work

| Structure (SMILES) | thermal stabilization of WT-ABCG2 by ligand (WT-ABCG2) | thermal stabilization of F439W-ABCG2 by ligand (F439W-ABCG2 [1]) | thermal stabilization of F439Y-ABCG2 by ligand (F439Y-ABCG2 [2]) | transport of substrate by F439A-ABCG2 (F439A-ABCG2) | transport of substrate by F439W-ABCG2 (F439W-ABCG2 [3]) | transport of substrate by F439Y-ABCG2 (F439Y-ABCG2 [4]) | transport of substrate by F439A (F439A) | transport of substrate by N436A (N436A) |
| --- | --- | --- | --- | --- | --- | --- | --- | --- |
| CCOc1ccc(-c2nc3ccc(-c4nc5ccc(N6CCN(C)CC6)cc5[nH]4)cc3[nH]2)cc1 [Hoechst 33342] | stabilized | stabilized | stabilized | incapable of transporting; also recorded: no net ABCG2 mediated transport | transport activity similar to WT-ABCG2 | transport activity similar to WT-ABCG2 | – | – |
| C[C@]12CC[C@@H]3c4ccc(OS(=O)(=O)O)cc4CC[C@H]3[C@@H]1CCC2=O [estrone-3-sulfate] | – | – | – | – | – | – | could not transport | incapable |

From article PMC8317467 (FASEB journal : official publication of the Federation of …, 2020)
